From paper PMC11555678, “Improved Broad Spectrum Antifungal Drug Synergies with Cryptomycin, a Cdc50-Inspired Antifungal Peptide” (ACS Infectious Diseases, 2024)

These substances were tested on C. glabrata 2001 (assay: microbe, parasite or virus in culture). Settings: Table S1; unit and conditions not given (MICs elsewhere in μg/mL).
Assay type: cell-based, Candida glabrata
Experimental: (§1) All microdilution assays with fungi were carried out in accordance with CLSI protocols from M27 for yeasts and M38 for filamentous fungi, respectively, unless otherwise specified.[64],[65] Briefly, 96-well plates were charged with RPMI1640 media, with operating volume in the first column, 200 μL, and half operating volume, 100 μL, in the remaining wells. Drug stock solution in DMSO was aliquoted into the first well in each row. Half of the volume in the dosed well was serially diluted 2-fold until column 11. Column 11 was used as the negative growth control, and column 12 was used as the positive growth control. ON yeast cultures in YPD were washed twice in DD-H2O, resuspended in PBS, and adjusted to 5000 cfu/mL in RPMI. The 96-well plate was inoculated with 100 μL aliquots of cell suspension per well. Plates were incubated at 37 °C for 2 days.
With “WGGIKANYA [K6A, alanine substituted peptide]” the “MIC (SAR screen peptides)” value was > 128.
For “WGGIAKNYA [K5A, alanine substituted peptide]”, the “MIC (SAR screen peptides)” value was > 128.
For “WGGIAANYA [KKAA, alanine substituted peptide]”, the “MIC (SAR screen peptides)” value was > 128.
For “WGGIO{D-Orn}NYA [O6o, D-Orn6 epimer of KKOO]”, the “MIC (SAR screen peptides)” value was > 128.
With “W{Hyp}GIOONYA [G2HYP, hydroxyproline at position 2, C′ NH2]” the “MIC (SAR screen peptides)” value was 16.
“WGGIKONYA [K6O, single ornithine-substituted AW9-Ma derivative]” was tested, and the “MIC (SAR screen peptides)” value was 32.
For “WGGIOONY{D-Ala} [A9a, D-Ala9 epimer of KKOO]”, the “MIC (SAR screen peptides)” value was > 128.
With “WGGIOKNYA [K5O, single ornithine-substituted AW9-Ma derivative]” the “MIC (SAR screen peptides)” value was > 128.
With “WGGIOO{D-Asn}YA [N7n, D-Asn7 epimer of KKOO]” the “MIC (SAR screen peptides)” value was > 128.
With “WGGIOONYA [KKOO-NHMe, C′ methylamide version of KKOO]” the “MIC (SAR screen peptides)” value was 16.
For “{D-Trp}GGIOONYA [W1w, D-Trp1 epimer of KKOO]”, the “MIC (SAR screen peptides)” value was 32.
In the case of “WGG{D-Ile}OONYA [I4i, D-Ile4 epimer of KKOO]”, the “MIC (SAR screen peptides)” value is reported as 64.

The substances below were run on C. neoformans cdc50Δ (assay: microbe, parasite or virus in culture). Settings: Table S1; unit and conditions not given (MICs elsewhere in μg/mL).
Assay type: cell-based, Cryptococcus neoformans
Experimental: as §1
In the case of “Myristic acid {Dap(FITC)}WGGIOONYA [(FITC)KKOO, FITC labeled version of KKOO]”, the “MIC (SAR screen peptides)” value is reported as 128.
“WGGIKANYA [K6A, alanine substituted peptide]” was tested, and the “MIC (SAR screen peptides)” value was > 128.
In the case of “WGGIAKNYA [K5A, alanine substituted peptide]”, the “MIC (SAR screen peptides)” value is reported as > 128.
With “WGGIAANYA [KKAA, alanine substituted peptide]” the “MIC (SAR screen peptides)” value was > 128.
With “WGGIO{D-Orn}NYA [O6o, D-Orn6 epimer of KKOO]” the “MIC (SAR screen peptides)” value was 4.
With “W{Hyp}GIOONYA [G2HYP, hydroxyproline at position 2, C′ NH2]” the “MIC (SAR screen peptides)” value was 4.
“WGGIKONYA [K6O, single ornithine-substituted AW9-Ma derivative]” was tested, and the “MIC (SAR screen peptides)” value was 4.
With “WGGIOONY{D-Ala} [A9a, D-Ala9 epimer of KKOO]” the “MIC (SAR screen peptides)” value was 4.
“WGGIOKNYA [K5O, single ornithine-substituted AW9-Ma derivative]” was tested, and the “MIC (SAR screen peptides)” value was 8.
With “WGGIOO{D-Asn}YA [N7n, D-Asn7 epimer of KKOO]” the “MIC (SAR screen peptides)” value was 8.
In the case of “WGGIOONYA [KKOO-NHMe, C′ methylamide version of KKOO]”, the “MIC (SAR screen peptides)” value is reported as 4.
For “{D-Trp}GGIOONYA [W1w, D-Trp1 epimer of KKOO]”, the “MIC (SAR screen peptides)” value was 4.
“WGG{D-Ile}OONYA [I4i, D-Ile4 epimer of KKOO]” was tested, and the “MIC (SAR screen peptides)” value was 4.

What follows are substances tested on C. neoformans H99 (assay: microbe, parasite or virus in culture). Settings: Table S1; unit and conditions not given (MICs elsewhere in μg/mL).
Assay type: cell-based, Cryptococcus neoformans
Experimental: as §1
In the case of “Myristic acid {Dap(FITC)}WGGIOONYA [(FITC)KKOO, FITC labeled version of KKOO]”, the “MIC (SAR screen peptides)” value is reported as > 128.
For “WGGIO{D-Orn}NYA [O6o, D-Orn6 epimer of KKOO]”, the “MIC (SAR screen peptides)” value was 16.
In the case of “W{Hyp}GIOONYA [G2HYP, hydroxyproline at position 2, C′ NH2]”, the “MIC (SAR screen peptides)” value is reported as 8.
With “WGGIKONYA [K6O, single ornithine-substituted AW9-Ma derivative]” the “MIC (SAR screen peptides)” value was 32.
“WGGIOONY{D-Ala} [A9a, D-Ala9 epimer of KKOO]” was tested, and the “MIC (SAR screen peptides)” value was > 128.
In the case of “WGGIOKNYA [K5O, single ornithine-substituted AW9-Ma derivative]”, the “MIC (SAR screen peptides)” value is reported as > 128.
For “WGGIOO{D-Asn}YA [N7n, D-Asn7 epimer of KKOO]”, the “MIC (SAR screen peptides)” value was 32.
With “WGGIOONYA [KKOO-NHMe, C′ methylamide version of KKOO]” the “MIC (SAR screen peptides)” value was 8.
For “{D-Trp}GGIOONYA [W1w, D-Trp1 epimer of KKOO]”, the “MIC (SAR screen peptides)” value was 16.
In the case of “WGG{D-Ile}OONYA [I4i, D-Ile4 epimer of KKOO]”, the “MIC (SAR screen peptides)” value is reported as 16.

What follows are substances tested on C. albicans SC5413 (assay: microbe, parasite or virus in culture). Settings: Table S1; unit and conditions not given (MICs elsewhere in μg/mL).
Assay type: cell-based, Candida albicans
Experimental: as §1
“WGGIO{D-Orn}NYA [O6o, D-Orn6 epimer of KKOO]” was tested, and the “MIC (SAR screen peptides)” value was > 128.
In the case of “W{Hyp}GIOONYA [G2HYP, hydroxyproline at position 2, C′ NH2]”, the “MIC (SAR screen peptides)” value is reported as 16.
In the case of “WGGIKONYA [K6O, single ornithine-substituted AW9-Ma derivative]”, the “MIC (SAR screen peptides)” value is reported as 32.
In the case of “WGGIOONY{D-Ala} [A9a, D-Ala9 epimer of KKOO]”, the “MIC (SAR screen peptides)” value is reported as > 128.
With “WGGIOO{D-Asn}YA [N7n, D-Asn7 epimer of KKOO]” the “MIC (SAR screen peptides)” value was > 128.
For “WGGIOONYA [KKOO-NHMe, C′ methylamide version of KKOO]”, the “MIC (SAR screen peptides)” value was 16.
For “{D-Trp}GGIOONYA [W1w, D-Trp1 epimer of KKOO]”, the “MIC (SAR screen peptides)” value was > 128.
“WGG{D-Ile}OONYA [I4i, D-Ile4 epimer of KKOO]” was tested, and the “MIC (SAR screen peptides)” value was > 128.

Each substance was assayed on C. neoformans H99 (assay: not given). Settings: (FITC)KKOO in combination with AMB.
Assay type: cell-based, Cryptococcus neoformans
Experimental: as §1, with “Plates were incubated at 37 °C for 2 days.” left out
To assess drug synergy, the initial media charged to the plate contained the peptide at twice the final operating concentration; the remaining processing steps were identical to the MIC experiment. Upon addition of 100 μL of inoculant, the final operating concentration was achieved. Control MIC plates were prepared alongside drug synergy plates to account for the day-to-day variability in any individual MIC. FIC index is computed using eq 1. All MIC assays and drug synergy assays were completed with two technical replicates per 96-well plate and a minimum of two biological replicates per drug combination. If a difference in MIC between the two technical replicates on the plate were observed, only the higher concentration was reported as the MIC to reduce the possibility of type 1 error (false positive) [drawing 1] 1
“Myristic acid {Dap(FITC)}WGGIOONYA [(FITC)KKOO, FITC labeled version of KKOO]” was tested, and the FIC index was < 0.5.
